Experimental data: paper PMC9823356, “Inhibition of Cancer Cell Proliferation and Bacterial Growth by Silver(I) Complexes Bearing a CH3-Substituted Thiadiazole-Based Thioamide” (Molecules, 2023)
Converted amounts (≈) assume the structure as drawn. “And” between values parts separate entries of the source, which are not always exact repeats. Identical values can stand only once. Like-named read-outs stand apart in the source and are kept apart here.

Columns and labels:
[1] = tested on: Escherichia coli (E. coli); assay: In vitro antibacterial activity, progressive double dilutions, culture turbidity; format: cell-based; details: for MIC: ampicillin reference against E.coli (BL21)
From the text: (§1) The growth of bacteria was estimated by measuring the turbidity of the culture, as previously reported. […] The pH of the media was adjusted to 7.0.

[2] = tested on: MRC5 human normal lung cells; assay: MTT cytostatic/cytotoxic assay; format: cell-based; details: MRC5, 48 h treatment; for IC50: cytocidal/cytotoxic; for GI50: growth inhibition; for TGI: total growth inhibition
Experimental: (§2) The cell lines were obtained from the American Type of Culture collection (ATCC), except HuP-T3 which was kindly donated from University of Crete, School of Medicine, Greece, and were grown in different culture medium according to the instructions.
(§3) For the determination of the cell viability, it was employed the MTT assay. Cells were plated in 96-well plate at a density of 1 × 10^4 cells/mL per well and maintained for 72 h at 37 °C in a 5% CO2 incubator and grown as monolayers. […] The viability of cultured cells was estimated by a (3-(4,5-imethylthiazol-2-yl)-2,5-diphenyltetrazolium bromide (MTT) metabolic assay as previously described.
(§4) In brief, MTT (Sigma, St Louis, Missouri, USA) was dissolved in PBS in a concentration of 5 mg/mL, filter sterilized, and stored at 4 °C. Then, 50 μL of stock solution was added to each culture and incubated for 3 h at 37 °C. Formazan crystals were solubilized by DMSO (100 μL). Absorbance of the converted dye was measured at a wavelength of 540 nm on ELISA reader (VersaMax Microplate Reader Orleans, USA). […] Using seven absorbance measurements [time 24 h (Ct24), control growth 72 h (Ct72), and test growth in the presence of drug at five concentration levels (Tt72x)], the percentage of growth was calculated at each level of the drug concentrations. The percentage growth inhibition was calculated according to National Cancer Institute (NCI) as: {[(Tt72x) − (Ct24)]/[(Ct72) − (Ct24)]} × 100 for concentrations for which Tt72x>Ct24 and {(Tt72x) − (Ct24)]/(Ct24)} × 100 for concentrations for which Tt72x<Ct24. […] All experiments were carried out in triplicate. A significant difference was presumed to exist when p ≤ 0.05 (two tailed paired t test).

[3] = tested on: DMS114 small cell lung cancer cells; assay: MTT cytostatic/cytotoxic assay; format: cell-based, human; details: DMS114, 48 h treatment; for LC50: cytocidal/cytotoxic, read-out: IC50 (the source's name); for GI50: growth inhibition; for TGI: total growth inhibition
Experimental: as §2, §3
as §4, with “Using seven absorbance measurements [time 24 h (Ct24), control growth 72 h (Ct72), and test growth in the presence of drug at five concentration levels (Tt72x)], the percentage of growth was calculated at each level of the drug concentrations.” left out

[4] = tested on: SKOV-3 ovarian cancer cells; assay: MTT cytostatic/cytotoxic assay; format: cell-based, human; details: SKOV-3, 48 h treatment; for LC50: cytocidal/cytotoxic, read-out: IC50 (the source's name); for GI50: growth inhibition; for TGI: total growth inhibition
Experimental: as §2, §3
as §4, with “Using seven absorbance measurements [time 24 h (Ct24), control growth 72 h (Ct72), and test growth in the presence of drug at five concentration levels (Tt72x)], the percentage of growth was calculated at each level of the drug concentrations.” left out

[5] = tested on: Hup-T3 pancreatic adenocarcinoma cells; assay: MTT cytostatic/cytotoxic assay; format: cell-based, human; details: Hup-T3, 48 h treatment; for IC50: cytocidal/cytotoxic; for GI50: growth inhibition; for TGI: total growth inhibition
Experimental: as §2, §3, §4

[6] = tested on: PC3 prostate adenocarcinoma cells; assay: MTT cytostatic/cytotoxic assay; format: cell-based, human; details: PC3, 48 h treatment; for LC50: cytocidal/cytotoxic, read-out: IC50 (the source's name); for GI50: growth inhibition; for TGI: total growth inhibition
Experimental: as §2, §3, §4

[7] = tested on: Bacillus subtilis (B. subtilis); assay: In vitro antibacterial activity, progressive double dilutions, culture turbidity; format: cell-based
From the text: as §1

[8] = tested on: Bacillus cereus (B. cereus); assay: as above; format: cell-based
From the text: as §1

[9] = tested on: Staphylococcus aureus (S. aureus); assay: as above; format: cell-based
From the text: as §1

[10] = Reduction of hydrogen peroxide; details: compound 0.1 mM, 20 min, phosphate buffer pH 7.4
Experimental: In vitro antioxidant activity studies for 1–4 and their free ligands were performed in order to determine their ability to scavenge DPPH, and ABTS free radicals and to reduce H2O2 and was compared with the antioxidant capacity of reference compounds (NDGA, BHT, trolox and ascorbic acid).
The absorbance was measured at 230 nm after 20 min. The antioxidant activity of the compounds was expressed as percent reduction of H2O2 (%H2O2). Ascorbic acid (or vitamin C) was used as an appropriate standard.

calf-thymus (CT) DNA = assay: CT DNA interaction by UV-visible spectroscopy; details: DMSO solution, upon addition of CT DNA; + hyperchromism, – hypochromism
Experimental: The UV-visible spectra of CT DNA solution (1.5 × 10^−4 M) were recorded in the presence of each compound at diverse [compound]/[DNA] mixing ratios (r).

[11] = Escherichia coli, read-out: MIC
[12] = value in parentheses, mean ± SD, read-out: IC50
[13] = Bacillus subtilis, read-out: IC50
[14] = Bacillus subtilis, read-out: MIC
[15] = Bacillus cereus, read-out: IC50
[16] = Staphylococcus aureus, read-out: IC50
[17] = Staphylococcus aureus, read-out: MIC
[18] = Escherichia coli, read-out: IC50

| SMILES | MIC [1, 11] | IC50 [2] | GI50 [2] | TGI [2] | IC50 [7] | MIC [7] | IC50 [7, 12] | IC50 [8] | MIC [8] | IC50 [8, 12] | IC50 [9] | MIC [9] | IC50 [9, 12] | IC50 [1] | MIC [1] | H2O2 reducing ability (%H2O2) [10] | other results |
| --- | --- | --- | --- | --- | --- | --- | --- | --- | --- | --- | --- | --- | --- | --- | --- | --- | --- |
| CC1(C)S[C@@H]2[C@H](NC(=O)[C@H](N)c3ccccc3)C(=O)N2[C@H]1C(=O)O [Ampicillin, reference compound] | 100 µg/mL (≈ 286 µM) |  |  |  |  |  |  |  |  |  |  |  |  |  |  |  |  |
| N.N.[Cl][Pt][Cl] [Cisplatin, reference compound] |  | 36 ± 2 µM | 8 ± 1 µM | 24±2 μΜ |  |  |  |  |  |  |  |  |  |  |  |  |  |
| Cc1n[nH]c(=S)s1.[Cl][Ag].c1ccc(P(c2ccccc2)c2ccccc2)cc1.c1ccc(P(c2ccccc2)c2ccccc2)cc1 [Compound 1, [AgCl(mtdztH)(PPh3)2]] |  | 9.2 ± 0.8 µM | 3 ± 0.5 µM | 5.2±0.5 μΜ | 21 µg/mL | 100 µg/mL | 26 ± 4 µM | 81 µg/mL | 100 µg/mL | 101 ± 10.3 µM | 16 µg/mL | 100 µg/mL | 20 ± 3.2 µM | higher than 100 μg/mL | higher than 100 μg/mL | 74.85±0.79% | LC50 [3]: 4.5 ± 0.3 µM; GI50 [3]: 1.9 ± 0.1 µM; TGI [3]: 3.1±0.1 μΜ; LC50 [4]: 5.7 ± 0.4 µM; GI50 [4]: 1.2 ± 0.2 µM; TGI [4]: 3.1±0.4 μΜ; IC50 [5]: 9.2 ± 0.3 µM; GI50 [5]: 2.2 ± 0.2 µM; TGI [5]: 4.1±0.3 μΜ; LC50 [6]: 9.6 ± 0.5 µM; GI50 [6]: 3 ± 0.3 µM; TGI [6]: 5.7±0.5 μΜ; activity against the Gram-(–) E. coli bacteria (in words) [1]: negligible activity |
| Cc1nnc([S][Ag])s1.c1ccc(P(c2ccccc2)c2ccccc2)cc1.c1ccc(P(c2ccccc2)c2ccccc2)cc1.c1ccc(P(c2ccccc2)c2ccccc2)cc1 [Compound 2, [Ag(mtdzt)(PPh3)3]] |  | 4.1 ± 0.06 µM | 2 ± 0.02 µM | 3.0±0.05 μΜ | 20 µg/mL | 100 µg/mL | 19 ± 2.8 µM | 12.5 µg/mL | 100 µg/mL | 12 ± 1.4 µM | 17 µg/mL | 100 µg/mL | 16 ± 2.6 µM | higher than 100 μg/mL | higher than 100 μg/mL | 80.59±0.55% and 80% | LC50 [3]: 4 ± 0.25 µM; GI50 [3]: 1.2 ± 0.05 µM; TGI [3]: 2.6±0.1 μΜ; LC50 [4]: 4.1 ± 0.3 µM; GI50 [4]: 1.9 ± 0.2 µM; TGI [4]: 3.0±0.3 μΜ; IC50 [5]: 4.5 ± 0.2 µM; GI50 [5]: 1.9 ± 0.2 µM; TGI [5]: 3.2±0.2 μΜ; LC50 [6]: 4.4 ± 0.15 µM; GI50 [6]: 2 ± 0.05 µM; TGI [6]: 3.2±0.12 μΜ; activity against the Gram-(–) E. coli bacteria (in words) [1]: negligible activity |
| O=C1O[C@H]([C@@H](O)CO)C(O)=C1O [L-ascorbic acid, reference compound] |  |  |  |  |  |  |  |  |  |  |  |  |  |  |  | 60.80±0.20% |  |
| c1ccc(P(c2ccccc2)c2ccccc2)cc1 [PPh3, thriphenylphosphine, reference compound] |  |  |  |  | higher than 100 μg/mL | higher than 100 μg/mL | > 380 µM | 70 µg/mL | higher than 100 μg/mL | 267 ± 9 µM | 70 µg/mL | higher than 100 μg/mL | 267 ± 2.2 µM | 51 µg/mL | higher than 100 μg/mL | 87.96±1.32% | IC50 [1, 12]: 194 ± 2 µM |
| c1ccc(P(CCP(c2ccccc2)c2ccccc2)c2ccccc2)cc1 [dppe, 1,2-bis(diphenylphosphino)ethane, reference compound] | > 100 µg/mL |  |  |  |  |  |  |  |  |  |  |  |  |  |  | 92.64±0.71% | IC50 [7, 13]: > 100 µg/mL; MIC [7, 14]: > 100 µg/mL; IC50 [8, 15]: > 100 µg/mL; MIC ([8]; Bacillus cereus, read-out: MIC): > 100 µg/mL; IC50 [9, 16]: > 100 µg/mL; MIC [9, 17]: > 100 µg/mL; IC50 [1, 18]: > 100 µg/mL |
| Cc1nnc(S)s1 [mtdztH, 5-methyl-1,3,4-thiadiazole-2-thiol, reference compound] | > 100 µg/mL |  |  |  |  |  |  |  |  |  |  |  |  |  |  | 97.17±0.10% | percentage of hyper-/hypochromism ΔA/Aο (calf-thymus (CT) DNA): –12%; IC50 [7, 13]: 53 µg/mL; MIC [7, 14]: > 100 µg/mL; IC50 ([7]; Bacillus subtilis, value in parentheses, mean ± SD, read-out: IC50): 401 ± 16.2 µM; IC50 [8, 15]: 21 µg/mL; MIC ([8]; Bacillus cereus, read-out: MIC): > 100 µg/mL; IC50 ([8]; Bacillus cereus, value in parentheses, mean ± SD, read-out: IC50): 159 ± 8.9 µM; IC50 [9, 16]: 21 µg/mL; MIC [9, 17]: > 100 µg/mL; IC50 ([9]; Staphylococcus aureus, value in parentheses, mean ± SD, read-out: IC50): 159 ± 9 µM; IC50 [1, 18]: 30 µg/mL; IC50 ([1]; Escherichia coli, value in parentheses, mean ± SD, read-out: IC50): 227 ± 6 µM |
